Where two headings read alike, the source gives them in different places.
Test system: recombinant rabies virus 1088 strain expressing Gaussia Luciferase (1088/GLuc)
Assay: microbe, parasite or virus in culture
Type: cell-based

Compound | IC50 (read-out: Anti-rabies activity) [µM] | also measured
Cc1ccc2c(CN3CC4CC5(C(=O)NCC6CCCCCC6)NC(=O)C4C3C5CC(C)C)cn(C(=O)OC(C)(C)C)c2c1 (racemic) [IF-782] | 10 to 30 | –
COc1ccc(CN2C[C@H]3C[C@]4(C(=O)NCc5ccccc5)NC(=O)[C@H]3[C@H]2[C@H]4CC(C)C)cc1 (relative stereo) [Compound I-5, (3S*,3aR*,6S*,7R*,7aR*)-N-benzyl-7-isobutyl-1-(4-methoxybenzyl)-4-oxooctahydro-6H-3,6-methanopyrrolo[3,2-c]pyridine-6-carboxamide] | – | IC50 (Lyssavirus rabies, N2a, 72 h, read-out: Anti-rabies activity): < 5 µM
NC(=O)c1nc(F)c[nH]c1=O [Compound T-705, reference compound] | – | IC50 (Lyssavirus rabies, N2a, 72 h, read-out: anti-rabies virus activity IC50): 30 µM
Cc1ccc2c(C[C@@H]3[C@H]4C[C@H]5CN[C@@H]3[C@@]5(C(=O)NCC3CCCCCC3)N(CC(C)C)C4=O)cn(C(=O)OC(C)(C)C)c2c1 [IB-814] | 10 to 30 | –
CC(C)CN1C(=O)[C@@H]2C[C@H]3CN[C@@H]([C@@H]2Cc2c[nH]c4cc(F)ccc24)[C@]31C(=O)NCC1CCCCCC1 [IB-817] | 10 to 30 | –
